Measured values reported in ChEMBL document CHEMBL1201862, “PubChem BioAssay data set” (2004).
Calls of active or inactive are those of the source.

Legend:
[1] = inhibitors of SNCA 5'UTR-driven reporter translation, confirmation, H4 neuroglioma cells, luminescence (AID 1988); assay type: functional, cell-based
[2] = inhibitors of firefly luciferase expression or activity, dose response, H4 neuroglioma cells, luminescence (AID 1990); assay type: functional, cell-based
[3] = target: T1, Heat shock factor protein 1 (Mus musculus, UniProt P38532); experiment: HSF1 potentiators in luciferase reporter cells, confirmation, cell-based, NIH3T3, luminescence, dose retest (AID 435004); assay type: functional;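 note: stress induced by proteasome inhibitor MG132 added 30 min after compound; luciferase reporter driven by HSF1 response element in NIH3T3 cells; actives raise luminescence as potentiators of the MG132 stress response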
T1 sequence (P38532 whole entry): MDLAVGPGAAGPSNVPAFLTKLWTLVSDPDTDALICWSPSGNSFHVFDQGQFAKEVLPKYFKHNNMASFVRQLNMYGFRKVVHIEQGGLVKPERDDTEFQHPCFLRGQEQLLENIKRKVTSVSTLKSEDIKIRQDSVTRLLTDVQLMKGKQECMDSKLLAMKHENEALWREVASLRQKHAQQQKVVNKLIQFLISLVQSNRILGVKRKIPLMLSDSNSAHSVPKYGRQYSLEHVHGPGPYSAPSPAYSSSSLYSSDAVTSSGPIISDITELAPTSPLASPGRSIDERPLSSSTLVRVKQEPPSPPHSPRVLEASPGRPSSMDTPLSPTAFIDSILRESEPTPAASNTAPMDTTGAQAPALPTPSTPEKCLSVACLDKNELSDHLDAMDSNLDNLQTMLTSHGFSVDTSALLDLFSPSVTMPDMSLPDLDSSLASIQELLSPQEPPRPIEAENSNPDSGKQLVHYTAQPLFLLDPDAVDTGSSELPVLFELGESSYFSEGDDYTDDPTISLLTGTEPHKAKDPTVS

[4] = Luminescence Cell-Based Dose Response HTS to Identify Inhibitors of 5'UTR Stem-Loop Driven Prion Protein mRNA Translation in H4 Neuroglioblastoma Cells. [Related pubchem assays: 1827 (Project Summary), 1813 (Primary HTS)]; assay type: functional
[5] = HEp-2 cell cytotoxicity, dose response, cytotoxicity control for RSV inhibitor project, HTS (AID 2410); assay type: functional; settings: human respiratory syncytial virus
[6] = target: Voltage-dependent T-type calcium channel subunit alpha-1H (Homo sapiens, UniProt O95180); assay type: functional;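 note: channel activity triggered by adding a high calcium stimulation buffer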
[7] = target: T2, High affinity choline transporter 1 (Homo sapiens, UniProt Q9GZV3); experiment: CHT inhibitors, dose response, cell-based, 5-point CRC, membrane potential dye (AID 504840); assay type: functional
T2 sequence (Q9GZV3 whole entry): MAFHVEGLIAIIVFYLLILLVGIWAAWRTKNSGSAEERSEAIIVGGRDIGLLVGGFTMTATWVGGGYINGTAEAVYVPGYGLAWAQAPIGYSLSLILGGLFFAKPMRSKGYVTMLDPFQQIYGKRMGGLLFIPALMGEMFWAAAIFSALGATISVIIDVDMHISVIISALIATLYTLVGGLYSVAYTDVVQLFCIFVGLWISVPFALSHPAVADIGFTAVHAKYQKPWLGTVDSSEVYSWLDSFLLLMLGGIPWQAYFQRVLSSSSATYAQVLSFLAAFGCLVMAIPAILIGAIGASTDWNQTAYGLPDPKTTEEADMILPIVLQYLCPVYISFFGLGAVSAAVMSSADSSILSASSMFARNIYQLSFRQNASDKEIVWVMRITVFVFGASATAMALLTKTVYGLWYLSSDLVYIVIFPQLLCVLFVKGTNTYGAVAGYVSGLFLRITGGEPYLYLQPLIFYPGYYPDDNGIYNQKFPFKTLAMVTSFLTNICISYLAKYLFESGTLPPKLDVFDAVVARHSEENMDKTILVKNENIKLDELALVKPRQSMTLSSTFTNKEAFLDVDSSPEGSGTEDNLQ

[8] = HepG2 cell cytotoxicity, dose response, cytotoxicity control for Shn3 inhibitor project, CellTiter-Glo, cherry-picked (AID 624134); assay type: functional, cell-based
[9] = Shn3 3'UTR reporter inhibitors, dose response, cell-based, Clone20 osteoblasts, firefly luciferase, cherry-picked (AID 624132); assay type: functional;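 note: firefly luciferase luminescence from reporter carrying the Shn3 3'UTR in osteoblasts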
[10] = control 3'UTR Renilla luciferase suppression, dose response, counter-screen for Shn3 inhibitor project, cell-based, Clone20-Shn3RL, cherry-picked (AID 624133); assay type: functional
[11] = target: T3, Ubiquitin-conjugating enzyme E2 N (Homo sapiens, UniProt P61088); assay type: functional;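 note: Dose-response confirmation in a TR-FRET assay detecting UBC13-driven polyubiquitin chain formation, inhibition measured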
T3 sequence (P61088 whole entry): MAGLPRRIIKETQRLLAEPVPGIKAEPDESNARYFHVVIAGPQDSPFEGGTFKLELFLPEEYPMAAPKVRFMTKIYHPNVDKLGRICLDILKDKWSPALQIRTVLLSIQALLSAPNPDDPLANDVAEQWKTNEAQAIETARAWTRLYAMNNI

Aminopeptidase N = target: T4, Aminopeptidase N (Plasmodium falciparum FcB1/Columbia, UniProt O96935); experiment: P. falciparum M1AAP inhibitors, biochemical, fluorogenic H-Leu-NHMec substrate, 1536-well (AID 1445); design: species or system Plasmodium falciparum 3D7, 3D7
T4 sequence (O96935 whole entry): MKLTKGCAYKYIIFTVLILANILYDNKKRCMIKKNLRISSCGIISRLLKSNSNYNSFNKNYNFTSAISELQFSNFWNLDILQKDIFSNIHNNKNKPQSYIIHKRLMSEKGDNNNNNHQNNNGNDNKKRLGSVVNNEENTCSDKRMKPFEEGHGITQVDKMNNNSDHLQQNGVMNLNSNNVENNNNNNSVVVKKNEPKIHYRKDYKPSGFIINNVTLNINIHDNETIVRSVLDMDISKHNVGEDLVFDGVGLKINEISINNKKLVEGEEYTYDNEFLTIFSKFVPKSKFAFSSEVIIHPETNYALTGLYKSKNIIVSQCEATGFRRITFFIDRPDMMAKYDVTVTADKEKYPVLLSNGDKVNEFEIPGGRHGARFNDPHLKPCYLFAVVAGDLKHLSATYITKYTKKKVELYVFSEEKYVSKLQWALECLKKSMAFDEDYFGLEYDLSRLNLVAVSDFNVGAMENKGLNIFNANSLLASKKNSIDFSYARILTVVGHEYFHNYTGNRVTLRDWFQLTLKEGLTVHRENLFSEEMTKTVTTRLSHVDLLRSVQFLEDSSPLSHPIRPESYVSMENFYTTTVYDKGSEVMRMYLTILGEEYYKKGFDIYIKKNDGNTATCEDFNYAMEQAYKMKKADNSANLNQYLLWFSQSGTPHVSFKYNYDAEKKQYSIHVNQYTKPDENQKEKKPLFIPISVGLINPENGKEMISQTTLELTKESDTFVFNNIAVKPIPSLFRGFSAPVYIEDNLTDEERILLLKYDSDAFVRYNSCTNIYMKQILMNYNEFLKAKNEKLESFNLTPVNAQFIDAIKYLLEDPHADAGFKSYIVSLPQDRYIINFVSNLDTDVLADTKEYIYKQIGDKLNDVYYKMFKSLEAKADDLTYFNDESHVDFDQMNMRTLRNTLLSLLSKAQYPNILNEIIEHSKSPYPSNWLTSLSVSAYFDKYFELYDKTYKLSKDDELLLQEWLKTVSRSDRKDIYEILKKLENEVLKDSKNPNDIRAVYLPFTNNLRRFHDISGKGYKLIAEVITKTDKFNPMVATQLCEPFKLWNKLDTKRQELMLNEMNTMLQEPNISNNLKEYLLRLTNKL

[12] = target: T5, Corticotropin-releasing factor receptor 2/Corticotropin-releasing factor-binding protein (Homo sapiens, UniProt P24387+Q13324); experiment: activators of CRF receptor 2 with binding protein – uHTS hits, confirmation (AID 602473); assay type: functional; settings: read-out: EC50_Mean
T5 sequence (Q13324 whole entry): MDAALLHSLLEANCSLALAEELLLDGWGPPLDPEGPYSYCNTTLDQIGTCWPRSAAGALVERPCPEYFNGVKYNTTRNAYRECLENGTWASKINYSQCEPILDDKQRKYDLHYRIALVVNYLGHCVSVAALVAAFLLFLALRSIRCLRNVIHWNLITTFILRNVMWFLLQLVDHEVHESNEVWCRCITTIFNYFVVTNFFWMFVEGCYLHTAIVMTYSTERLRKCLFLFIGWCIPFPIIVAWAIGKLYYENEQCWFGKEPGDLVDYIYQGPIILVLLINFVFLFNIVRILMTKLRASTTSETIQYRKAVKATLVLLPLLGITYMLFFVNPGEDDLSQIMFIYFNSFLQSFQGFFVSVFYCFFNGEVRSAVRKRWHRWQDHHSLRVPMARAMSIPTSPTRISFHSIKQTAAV
T5 sequence (P24387 whole entry): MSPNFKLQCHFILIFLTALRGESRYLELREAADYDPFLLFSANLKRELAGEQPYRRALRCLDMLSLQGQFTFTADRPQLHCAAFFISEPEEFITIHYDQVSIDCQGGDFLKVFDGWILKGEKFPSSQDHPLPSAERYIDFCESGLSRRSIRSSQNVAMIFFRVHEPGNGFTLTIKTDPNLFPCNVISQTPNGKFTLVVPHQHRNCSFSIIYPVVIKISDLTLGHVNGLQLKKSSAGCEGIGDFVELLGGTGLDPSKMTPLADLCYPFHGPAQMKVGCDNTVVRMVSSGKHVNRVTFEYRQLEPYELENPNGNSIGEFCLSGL

[13] = target: T5, Corticotropin-releasing factor receptor 2/Corticotropin-releasing factor-binding protein; experiment: Dose Response confirmation of uHTS hits for small molecule antagonists of the CRF-binding protein and CRF-R2 receptor complex.; assay type: functional; settings: read-out: IC50_Mean
[14] = C. albicans growth with fluconazole, confirmation, fluorescence, retest (AID 2467); assay type: functional, cell-based
[15] = NIH-3T3 fibroblast cytotoxicity, dose response, cytotoxicity control, cell-based, fluorescence, Alamar Blue, secondary assay (AID 2327); assay type: functional;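 note: NIH-3T3 mouse fibroblasts cultured with fluconazole at 8 µg/mL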

Voltage-dependent T-type calcium channel subunit alpha-1H, sequence (O95180 whole entry): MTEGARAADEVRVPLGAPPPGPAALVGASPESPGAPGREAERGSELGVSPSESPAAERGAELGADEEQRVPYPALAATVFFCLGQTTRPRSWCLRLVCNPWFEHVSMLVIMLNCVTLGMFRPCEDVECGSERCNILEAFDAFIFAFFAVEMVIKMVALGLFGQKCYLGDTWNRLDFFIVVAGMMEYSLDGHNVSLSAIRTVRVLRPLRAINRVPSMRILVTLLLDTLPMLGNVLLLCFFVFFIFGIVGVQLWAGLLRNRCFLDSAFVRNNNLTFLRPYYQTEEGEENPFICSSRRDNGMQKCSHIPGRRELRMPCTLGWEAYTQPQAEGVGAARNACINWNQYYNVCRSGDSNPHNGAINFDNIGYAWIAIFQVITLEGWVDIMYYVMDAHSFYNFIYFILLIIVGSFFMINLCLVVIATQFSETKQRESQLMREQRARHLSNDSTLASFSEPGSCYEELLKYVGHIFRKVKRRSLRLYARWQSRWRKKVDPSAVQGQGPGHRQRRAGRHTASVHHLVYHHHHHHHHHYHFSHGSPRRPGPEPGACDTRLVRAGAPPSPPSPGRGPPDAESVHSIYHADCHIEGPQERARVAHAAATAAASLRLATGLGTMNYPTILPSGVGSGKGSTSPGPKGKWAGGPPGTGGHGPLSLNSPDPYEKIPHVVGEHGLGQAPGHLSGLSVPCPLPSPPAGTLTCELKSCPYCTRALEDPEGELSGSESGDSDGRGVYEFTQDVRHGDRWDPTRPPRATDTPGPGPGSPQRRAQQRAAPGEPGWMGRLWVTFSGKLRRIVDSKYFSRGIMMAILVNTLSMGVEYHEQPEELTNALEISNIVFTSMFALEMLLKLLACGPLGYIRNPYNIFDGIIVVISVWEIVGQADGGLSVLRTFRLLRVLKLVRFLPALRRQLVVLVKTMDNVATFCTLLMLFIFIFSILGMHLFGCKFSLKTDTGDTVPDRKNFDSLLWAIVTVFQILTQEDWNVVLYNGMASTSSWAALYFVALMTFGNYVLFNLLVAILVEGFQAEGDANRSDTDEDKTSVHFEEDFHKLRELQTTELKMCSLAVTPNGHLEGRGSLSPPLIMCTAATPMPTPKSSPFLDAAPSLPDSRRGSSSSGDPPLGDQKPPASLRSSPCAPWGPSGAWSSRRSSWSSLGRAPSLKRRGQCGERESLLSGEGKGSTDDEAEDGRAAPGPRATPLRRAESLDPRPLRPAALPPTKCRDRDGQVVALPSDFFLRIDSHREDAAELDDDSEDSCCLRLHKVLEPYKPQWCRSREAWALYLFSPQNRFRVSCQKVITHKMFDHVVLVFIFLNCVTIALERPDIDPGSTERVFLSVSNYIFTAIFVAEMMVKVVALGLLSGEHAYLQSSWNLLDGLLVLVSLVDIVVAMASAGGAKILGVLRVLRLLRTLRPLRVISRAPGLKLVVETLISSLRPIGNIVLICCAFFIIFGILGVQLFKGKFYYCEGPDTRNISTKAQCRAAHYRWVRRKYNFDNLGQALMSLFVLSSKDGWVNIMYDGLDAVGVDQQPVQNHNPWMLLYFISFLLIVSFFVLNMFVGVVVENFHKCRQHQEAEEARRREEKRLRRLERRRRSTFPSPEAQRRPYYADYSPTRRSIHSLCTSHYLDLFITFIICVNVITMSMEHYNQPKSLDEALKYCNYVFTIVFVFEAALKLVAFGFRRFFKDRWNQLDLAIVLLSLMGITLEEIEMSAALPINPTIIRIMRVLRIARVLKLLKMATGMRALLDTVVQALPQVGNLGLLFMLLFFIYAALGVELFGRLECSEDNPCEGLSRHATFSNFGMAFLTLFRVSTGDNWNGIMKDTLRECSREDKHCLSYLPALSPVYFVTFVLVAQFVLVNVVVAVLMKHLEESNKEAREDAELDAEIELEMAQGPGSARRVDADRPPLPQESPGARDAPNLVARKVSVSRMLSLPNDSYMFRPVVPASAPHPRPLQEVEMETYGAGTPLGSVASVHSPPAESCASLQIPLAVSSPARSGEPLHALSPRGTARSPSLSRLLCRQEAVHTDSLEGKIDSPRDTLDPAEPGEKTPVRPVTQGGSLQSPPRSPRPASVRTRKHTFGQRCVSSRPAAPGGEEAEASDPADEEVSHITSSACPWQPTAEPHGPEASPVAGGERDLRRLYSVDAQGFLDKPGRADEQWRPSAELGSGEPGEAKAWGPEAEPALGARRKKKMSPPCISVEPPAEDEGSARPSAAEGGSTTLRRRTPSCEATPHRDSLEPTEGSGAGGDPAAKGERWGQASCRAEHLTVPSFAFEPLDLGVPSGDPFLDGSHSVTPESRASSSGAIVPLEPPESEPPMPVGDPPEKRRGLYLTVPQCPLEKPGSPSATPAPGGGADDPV

## CC(C)CC(/C(O)=C(\C#N)c1nc2ccccc2[nH]1)N1C(=O)c2ccccc2C1=O (configuration not stated)
[1]
  EC50: 12.3 µM (active)
[2]
  EC50: > 120 µM (not active)
[3]
  EC50: > 260 µM (inactive)
[4]
  EC50: > 120 µM (not active)
[5]
  CC50: 21 µM (active)
[6]
  EC50: 14.8 µM (active)

## CN(C)C1(C/N=C/c2cc(Cl)cc([N+](=O)[O-])c2O)CCCCC1
[7]
  IC50: 14.5 µM (active)

## NS(=O)(=O)c1ccc(CCNCc2cc(Br)ccc2OCc2ccccc2)cc1
[8]
  AC50: 53.7 µM (active)
[9]
  AC50: 2.92 µM (active)
[10]
  AC50: 5.96 µM (active)

## CC(C)(C)OC(=O)[C@H](Cc1ccccc1)NC(=O)c1nc[nH]c1C(=O)N[C@@H](CCCCN)C(=O)OC(C)(C)C
[11]
  IC50: > 20 µM (inactive)

## C=C1CC2(OC1=O)c1ccccc1CCc1ccccc12
[8]
  AC50: 11.4 µM (active)
[9]
  AC50: 1.28 µM (active)
[10]
  AC50: 5.67 µM (active)

## COc1ccc(OCC(O)CNCCOc2ccccc2OC)c(C(C)(C)C)c1 (configuration not stated)
[8]
  AC50: 30.7 µM (active)
[9]
  AC50: 11.6 µM (active)
[10]
  AC50: 19.6 µM (active)
[5]
  CC50: 14.7 µM (active)

## Cc1ccc(-c2nnn(CC(=O)N(c3ccccc3F)C(C(=O)NCC3CCCO3)c3c[nH]c4ccccc34)n2)cc1 (configuration not stated)
[6]
  EC50: 4 µM (active)

## Cc1ccc(C)c(NC(=O)C2C(c3ccccc3)C2(Cl)Cl)c1 (configuration not stated)
[6]
  EC50: 0.968 µM (active)

## CN(C)c1oc(-c2cccs2)nc1C#N
Aminopeptidase N
  IC50: 104 µM (active)

## CN(CCOc1ccc(Cl)cc1)C(=O)c1cccc(S(=O)(=O)N2CCN(Cc3ccccc3)CC2)c1
[8]
  AC50: > 70 µM (inactive)
[9]
  AC50: 2.29 µM (active)
[10]
  AC50: 3.57 µM (active)

## COc1cccc(-c2csc(N3CCN(C(=O)NC45CC6CC(CC(C6)C4)C5)CC3)n2)c1
[6]
  EC50: 5.32 µM (active)

## Cc1ccc(NC(=O)CSc2nccn2Cc2ccccc2)cc1C
[6]
  EC50: 2.74 µM (active)

## CCCNS(=O)(=O)c1cccc(C(=O)NC2CCCc3ccccc32)c1 (configuration not stated)
[7]
  IC50: 13.5 µM (active)
[12]
  EC50: > 53 µM (inactive)
[13]
  IC50: > 47.1 µM (inactive)

## Cc1ccccc1-n1c(C)cc(/C=N/NC(=O)c2ccc(CN3CCOCC3)cc2)c1C
[7]
  IC50: 7.94 µM (active)

## O=C(CSc1nnc(-c2ccncc2)n1Cc1ccco1)c1ccc(Cl)cc1
[7]
  IC50: 1.91 µM (active)

## O=C1CC(c2nc3ccccc3[nH]2)CN1c1cccc(C(F)(F)F)c1 (configuration not stated)
[6]
  EC50: 8.89 µM (active)

## CCc1nn2c(NCCOC)cc(C)nc2c1-c1ccc(F)cc1
[7]
  IC50: 14.5 µM (active)

## CCN(CC)C(=O)Cn1c(=O)n(-c2ccccc2)c(=O)c2c3c(sc21)CCC3
Aminopeptidase N
  IC50: 51.2 µM (active)
[14]
  EC50: > 38 µM (not active)
[15]
  EC50: > 160 µM (inactive)

## COC(=O)c1ccccc1NC(=O)c1cccc(NC(=O)c2ccc(Br)o2)c1C
[6]
  EC50: 5.7 µM (active)

## Cc1noc(NS(=O)(=O)c2ccc(NC(=O)C(CC(C)C)N3C(=O)c4ccccc4C3=O)cc2)c1C (configuration not stated)
Aminopeptidase N
  IC50: 7.56 µM (active)

## CN(C(=S)NC(=O)CCCOc1ccc(Cl)cc1Cl)c1ccccc1
[6]
  EC50: 4.13 µM (active)

## CC(=O)NC(c1ccco1)c1cc(Cl)c2ccccc2c1O (configuration not stated)
[11]
  IC50: > 20 µM (inactive)

## CCc1ccc(N(C(=O)c2snc(C(N)=O)c2N)C(C(=O)NCC2CCCO2)c2ccco2)cc1 (configuration not stated)
[11]
  IC50: > 20 µM (inactive)

## O=C(Cc1c[nH]c2ccccc12)OCCOC(=O)Cc1c[nH]c2ccccc12
[6]
  EC50: 4.77 µM (active)
